Measurements reported in ChEMBL document CHEMBL1145078, “Discovery and preclinical characterization of (+)-3-[4-(1- piperidinoethoxy)phenyl]spiro[indene- 1,1'-indane]-5,5'-diol hydrochloride: a promising nonsteroidal estrogen receptor agonist for hot flush” (J Med Chem, 2003).

Species: Rattus norvegicus
Assay: Dose required to prevent loss of total bone mineral density of rat distal femur
Type: functional

Cl.Oc1ccc2c(c1)CCC21C=C(c2ccc(OCCN3CCCCC3)cc2)c2cc(O)ccc21 (single isomer, unassigned; (+))
Dose: 0.1 mg/kg/day
